This note sets out measurements from PubChem BioAssay AID2060601 (Molecular Pharmacology Branch, DTP, NCI, 2025).

By viability, T/C is commonly meant the result in the treated group divided by that in the control group, in per cent. The IC50 is the concentration needed to halve the response being measured.

The test system of this assay is 874868-142-R-J2-PDC complex spheroids, growth % test/control. Description: Anticancer human tumor 874868-142-R-J2-PDC patient-derived head and neck squamous carcinoma cell line growth inhibition [CLK]. The note with it: for viability, T/C: stronger effect = lower value. An excerpt: A high-throughput screen of multi-cell type tumor spheroids was designed to identify active combinations of […] and targeted small molecules. Complex spheroids include a stromal component modeled by human endothelial cells (HUVEC) and fibroblasts modeled by human mesenchymal stem cells (MSCs). The concentration ranges selected for each drug and investigational agent were based upon clinically achievable concentrations if the clinical Cmax of the agent was known.
Compounds. The drugs and investigational agents: cirtuvivint (SM08502; NSC835563), CC-671 (NSC850746), vemurafenib (NSC761431), tapotoclax (NSC804041), sotorasib (NSC818433), adagrasib (NSC831453), MRTX-1133 (NSC836407), BAY2416964 (NSC825713), copanlisib (NSC816437), inavolisib (NSC800729), abemaciclib (NSC768073), osimertinib (NSC779217), entinostat (NSC756642), eltanexor (KPT-8602, NSC794443), venetoclax (NSC766270), ceralasertib (NSC777638), bortezomib (NSC756655), olaparib (NSC753686), talazoparib (NSC767125), alisertib (NSC759677), peposertib (NSC802822), gemcitabine (NSC613327), 5-fluorouracil (NSC19893), SN-38 (NSC673596), oxaliplatin (NSC266046), paclitaxel (NSC125973), and doxorubicin (NSC123127), were obtained from the National Cancer Institute (NCI) Developmental Therapeutics Program Chemical Repository. The FDA-approved anticancer drug set is available from the Developmental Therapeutics Program at https://dtp.cancer.gov/organization/dscb/obtaining/available plates.htm. […] The stock solutions were prepared in dimethyl sulfoxide (DMSO, Sigma-Aldrich, St. Louis, MO, cat. D2650), except for the platinum complexes which were prepared in saline (Quality Biological, Gaithersburg, MD, cat. 114-055-101), at 800-fold the tested concentration and stored at -70 degrees C prior to their use. All drugs and investigational agents were tested over a range starting from a high concentration at or near the clinical Cmax and decreasing in half-log increments. If the clinical Cmax for an agent had not been determined, the highest concentration tested was 10 microM.
Cell Culture. All cells were maintained in an incubator at 37 degrees C and 5% CO2 with 95% humidity. The PDC lines were cultured according to standard operating procedures established by the NCI PDMR. Briefly, all PDCs were thawed and cultured in Matrigel-coated flasks prepared with a working solution of 1X Ham's F-12 nutrient mix, without supplementation (Invitrogen, Waltham, MA, cat. 11765054), 100 U/mL penicillin-streptomycin (Invitrogen, cat. 15140122), and 2.5% Matrigel (Corning Inc., Corning, NY, cat. 354248) for the first three passages. The 947758-054-R-J2-PDC line was cultured in 6B/Colon 1A media, which includes advanced DMEM/F-12 (Thermo Fisher Scientific, cat. 12634028), 10 mM HEPES (Thermo Fisher Scientific, cat. 15630080), 1X GlutaMAX supplement (Thermo Fisher Scientific, cat. 35050061), 0.1 mg/mL primocin (InvivoGen, cat. ant-pm-2), 10% defined fetal bovine serum, heat inactivated (HyClone Laboratories Inc., cat. SH30070.03HI), 1.25 mM N-Acetyl-L-cysteine (Sigma-Aldrich, cat. A9165), 10 mM nicotinamide (Sigma-Aldrich, cat. N0636), 1X B-27 supplement (Thermo Fisher Scientific, cat. 17504044), 1X N-2 supplement (Thermo Fisher Scientific, cat. 17502048), and 10 microM Y-27632 dihydrochloride (Tocris Bioscience, cat. 1254). The 876862-298-R-J1-PDC was cultured in 6E media, which includes all 6B/Colon 1A media components plus 50% L-WRN conditioned media (ATCC, cat. CRL-3276), 50 ng/mL recombinant human EGF recombinant protein (hEGF; Thermo Fisher Scientific, cat. PHG0311), 10 ng/mL recombinant human fibroblast growth factor 10 (hGFG-10; PeproTech, cat. 100-26), 1 ng/mL recombinant human fibroblast growth factor 2 (hFGF-2; PeproTech, cat. 100-18B), and 1 µM prostaglandin E2 (PGE2; Tocris, cat. 2296). The 227483-062-R1-J1-PDC line was cultured in Panc media, containing all 6E components except hFGF-2, with the addition of 500 nM SB-431542 (Selleckchem, cat. S1067) and 10 nM gastrin (Tocris, cat. 3006). […]

“And” between values parts separate entries of the source, which are not always exact repeats. Identical values can stand only once.
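Note: spheroids exposed to the compounds for 7 days.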

As for `CC(=O)O[C@H]1C(=O)[C@@]2(C)[C@H]([C@H](OC(=O)c3ccccc3)[C@]3(O)C[C@H](OC(=O)[C@H](O)[C@@H](NC(=O)c4ccccc4)c4ccccc4)C(C)=C1C3(C)C)[C@]1(OC(C)=O)CO[C@@H]1C[C@@H]2O`, the viability, T/C is, setting by setting: (compound 0.0316 µM) 24.8% and 41.2%; (compound 0.1 µM) 22.5% and 38.5%; (compound 0.316 µM) 21.1% and 41.4%; (compound 1 µM) 28.7% and 47.2%; (compound 3.16 µM) 23.2% and 42.7%; (compound 10 µM) 36.4% and 50.2%. For the same compound, for the setting “curve of compound”, the IC50 is under 31.6 nM.

For `CC1COCCN1c1cc(C2(S(C)(=N)=O)CC2)nc(-c2ccnc3[nH]ccc23)n1` (stereo unspecified), the viability, T/C reads like this: (compound 0.0316 µM) 93.5% and 84.9%; (compound 0.1 µM) 91.8% and 114%; (compound 0.316 µM) 82.2% and 76%; (compound 1 µM) 63.7% and 61.2%; (compound 3.16 µM) 32.2% and 49%; (compound 10 µM) 28.2% and 38.6%. In addition, the IC50 (curve of compound) is 1640 nM and 2160 nM.

Regarding `CNC(=O)c1ccc(Nc2nc(OC3CCCC3)c3c(-c4ccc5nc(C)oc5c4)c[nH]c3n2)c(OC)c1`, the viability, T/C is 89.6% [middle of 11 runs] (compound 0.1 µM); 60.3% [middle of 11 runs] (compound 0.316 µM); 50% [middle of 10 runs] (compound 1 µM); 44.5% [middle of 11 runs] (compound 3.16 µM); 42.6% [middle of 11 runs] (compound 10 µM).

Take `COc1ccc([C@@H](O)c2cc(-c3ncnc4cc(N5CCOCC5)ccc34)c(F)cc2Cl)nn1`: the viability, T/C was 93.7% and 87.2% (compound 0.0316 µM); 92% and 97.7% (compound 0.1 µM); 84.4% and 85% (compound 0.316 µM); 67.6% and 79.7% (compound 1 µM); 40.5% and 54.6% (compound 3.16 µM); 24.7% and 26.3% (compound 10 µM). Also, for the setting “curve of compound”, the IC50 was 2120 nM and 3830 nM.

With `COc1cccc2c1C(=O)c1c(O)c3c(c(O)c1C2=O)CC(O)(C(=O)CO)CC3OC1CC(N)C(O)C(C)O1` (stereo unspecified), the viability, T/C is 74.8% and 74.3% (compound 0.0316 µM); 46.2% and 52.2% (compound 0.1 µM); 18.9% and 27.4% (compound 0.316 µM); 3.91% and 6.75% (compound 1 µM); 0.09% and 0.19% (compound 3.16 µM); 0.19% and 0.2% (compound 10 µM). For the same compound, the IC50 (curve of compound) is 86.8 nM and 114 nM.

In the case of `Nc1ccn(C2OC(CO)C(O)C2(F)F)c(=O)n1` (stereo unspecified), the viability, T/C (compound 0.0316 µM) is 81.2% and 81.7%; the viability, T/C (compound 0.1 µM) is 78.9% and 76.2%; the viability, T/C (compound 0.316 µM) was 49.2% and 54.9%; the viability, T/C (compound 1 µM) was 31.5% and 44.2%; the viability, T/C (compound 3.16 µM) is 25.7% and 40.5%; the viability, T/C (compound 10 µM) is 30.1% and 32.9%. The IC50 (curve of compound) is 311 nM and 572 nM.

For the compound `O=C(c1cc(Cc2n[nH]c(=O)c3ccccc23)ccc1F)N1CCN(C(=O)C2CC2)CC1`, the viability, T/C was 102% and 97.1% (compound 0.0316 µM); 113% and 78.1% (compound 0.1 µM); 95.2% and 74.9% (compound 0.316 µM); 91.5% and 85.1% (compound 1 µM); 86.9% and 76.4% (compound 3.16 µM); 83.9% and 71.1% (compound 10 µM). In addition, the IC50 (curve of compound) was over 10000 nM.

Consider `O=c1[nH]cc(F)c(=O)[nH]1`, for which the viability, T/C is 96.6% and 97.4% (compound 0.0316 µM); 99.9% and 74.5% (compound 0.1 µM); 85.2% and 65.8% (compound 0.316 µM); 65.2% and 55.6% (compound 1 µM); 38.4% and 53.1% (compound 3.16 µM); 37% and 45.6% (compound 10 µM). Also, the IC50 (curve of compound) is 1990 nM and 4140 nM.

For `CCCS(=O)(=O)Nc1ccc(F)c(C(=O)c2c[nH]c3ncc(-c4ccc(Cl)cc4)cc23)c1F` + CN1CCN(c2cc(C(=O)Nc3cc4cc(-c5cnn(C)c5)ccc4cn3)ccn2)CC1, the IC50 (curve of first compound, second compound 0.0316 µM) was over 10000 nM; the IC50 (curve of first compound, second compound 0.1 µM) is over 10000 nM; the IC50 (curve of first compound, second compound 0.316 µM) is under 31.6 nM; the half-inhibitory concentration (IC50) (curve of first compound, second compound 1 µM) is under 31.6 nM; the IC50 (curve of first compound, second compound 3.16 µM) is under 31.6 nM; the IC50 (curve of first compound, second compound 10 µM) is under 31.6 nM. Further, the viability, T/C runs as follows: (second compound 0.0316 µM, first compound 0.0316 µM) 99.5%; (second compound 0.0316 µM, first compound 0.1 µM) 95.3%; (second compound 0.0316 µM, first compound 0.316 µM) 97.4%; (second compound 0.0316 µM, first compound 1 µM) 120%; (second compound 0.0316 µM, first compound 3.16 µM) 104%; (second compound 0.0316 µM, first compound 10 µM) 88.4%. The viability, T/C is 71.4% (second compound 0.1 µM, first compound 0.0316 µM); 82.1% (second compound 0.1 µM, first compound 0.1 µM); 101% (second compound 0.1 µM, first compound 0.316 µM); 103% (second compound 0.1 µM, first compound 1 µM); 99.2% (second compound 0.1 µM, first compound 3.16 µM); 67.2% (second compound 0.1 µM, first compound 10 µM). In addition, the viability, T/C is 21.1% (second compound 0.316 µM, first compound 0.0316 µM); 18.1% (second compound 0.316 µM, first compound 0.1 µM); 16% (second compound 0.316 µM, first compound 0.316 µM); 14.8% (second compound 0.316 µM, first compound 1 µM); 20.2% (second compound 0.316 µM, first compound 3.16 µM); 17.8% (second compound 0.316 µM, first compound 10 µM). Moreover, the viability, T/C runs as follows: (second compound 1 µM, first compound 0.0316 µM) 0.34%; (second compound 1 µM, first compound 0.1 µM) 0.78%; (second compound 1 µM, first compound 0.316 µM) 0.38%; (second compound 1 µM, first compound 1 µM) 0.32%; (second compound 1 µM, first compound 3.16 µM) 0.26%; (second compound 1 µM, first compound 10 µM) 3.04%. Besides, the viability, T/C is 0.22% (second compound 3.16 µM, first compound 0.0316 µM); 3.25% (second compound 3.16 µM, first compound 0.1 µM); 0.32% (second compound 3.16 µM, first compound 0.316 µM); 0.24% (second compound 3.16 µM, first compound 1 µM); 0.3% (second compound 3.16 µM, first compound 3.16 µM); 2.5% (second compound 3.16 µM, first compound 10 µM). The viability, T/C by setting is: (second compound 10 µM, first compound 0.0316 µM) 0.34%; (second compound 10 µM, first compound 0.1 µM) 0.84%; (second compound 10 µM, first compound 0.316 µM) 0.18%; (second compound 10 µM, first compound 1 µM) 0.18%; (second compound 10 µM, first compound 3.16 µM) 0.19%; (second compound 10 µM, first compound 10 µM) 2%.
